Earlier results on two molecules are cited in US11285107B2, “Process for manufacturing porous silica particles loaded with at least one bioactive compound adapted for lung, nasal, sublingual, and/or pharyngeal delivery” (Nanologica AB, priority 2017, dated 2022).

A value given as a limit tells only on which side of the number the result lay.

Take `NCC(=O)Nc1ccc(-n2nc(C(F)(F)F)cc2-c2ccc3c(ccc4ccccc43)c2)cc1` [OSU-03012, 2-amino-N-(4-(5-(phenanthren-2-yl)-3-(trifluoromethyl)-1H-pyrazol-1-yl)phenyl)acetamide]: the “solubility in water” value was “insoluble in water”.

Consider `CCN(CC)CCNC(=O)c1cc(Cl)c(N)cc1OC` [metoclopramide], for which the solubility in water was above 6000 µg/mL.
